Results on 22 compounds are retold here after patent US10550110B2, “Tetrahydroquinoline sulfonamide derivatives as inverse agonists of retinoid-related orphan receptor gamma (ROR gamma (t))” (GALDERMA RESEARCH & DEVELOPMENT, priority 2014, dated 2020).

Molecules are shown by their SMILES.

The target of this experiment is T1, ROR gamma ligand-binding domain (LBD) (hRORg) (Homo sapiens, UniProt P51449).
T1 construct: expressed in transfected cells; host or cells: HG5LN (HeLa line with GAL4-responsive luciferase reporter)
T1 sequence (P51449 269-508 limits assumed): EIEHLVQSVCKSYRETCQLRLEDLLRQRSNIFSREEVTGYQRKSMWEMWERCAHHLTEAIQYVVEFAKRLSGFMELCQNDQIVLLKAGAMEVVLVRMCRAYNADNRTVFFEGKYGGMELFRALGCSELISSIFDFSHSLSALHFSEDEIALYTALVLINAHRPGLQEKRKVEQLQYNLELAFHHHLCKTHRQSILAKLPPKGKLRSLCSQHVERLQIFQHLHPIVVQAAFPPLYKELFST
Description: GAL4-RORγ transactivation (luciferase reporter, HG5LN HeLa line). Type of experiment: cell-based. Conditions: HG5LN HeLa line with GAL4 DBD fused to ROR gamma LBD, 18 hours incubation. The source says:
GAL4—RORγ Transactivation
The RORγ transactivation model was developed from the line HG5LN, which is a HeLa line that stably expresses a luciferase reporter gene controlled by a pentamer of the GAL4 recognition domain of yeast and of a β-globin promoter. The HG5LN line was stably transfected by the DNA-binding domain (DBD) of GAL4 fused to the ROR gamma ligand-binding domain (LBD). Molecules that inhibit the ROR gamma constitutive activity reduce the luciferase expression, thus leading to a reduction in the emitted luminescence.
The cells are seeded in 384-well plates (5000 cells in 45 μL/well of culture medium containing 10% fetal calf serum) and incubated for 4 hours at 37° C., 5% CO2. 5 μL of the test molecules (compounds described in the tables described above) are then added to each well and the plates are incubated for 18 hours at a temperature of 37° C. under 5% of CO2. 20 μL of luciferase substrate (Promega) are added to each well and the luminescence emitted is read by a microplate reader.
The luminescence units (“RLU”) are normalized by positive controls (“POS” containing a saturated concentration of N-(2,2,2-trifluoroethyl)-N-[4-[2,2,2-trifluoro-1-hydroxy-1-(trifluoromethyl)ethyl]phenyl])benzenesulfonamide and negative controls (“NEG” containing DMSO): % inhibition=((RLU-NEG)*100)/(POS-NEG). The IC50 values are calculated from a 4-parameter logistic model using the XLFit software (IDBS).
(Reporter assays use an easily measured gene product as a stand-in for the process of interest.)
On to `CCc1ccc(N(CC(C)C)S(=O)(=O)c2ccc3c(c2)C(O)CCN3CC2CCC(F)(F)CC2)cc1` (stereo not shown) [Compound 33, 1-(4,4-difluorocyclohexylmethyl)-4-hydroxy-1,2,3,4-tetrahydroquinoline-6-sulfonic acid (4-ethylphenyl)isobutylamide], for which the IC50 (as a rule, the point on the concentration scale where inhibition reaches its midpoint) was more than 1000 nM.
The same measure for `CCc1ccc(N(CC(C)C)S(=O)(=O)c2ccc3c(c2)C(O)CCN3CC2CCC(F)(F)C2)cc1` (stereo not shown) [Compound 34, 1-(3,3-difluorocyclopentylmethyl)-4-hydroxy-1,2,3,4-tetrahydroquinoline-6-sulfonic acid (4-ethylphenyl)isobutylamide]: 100 to 1000 nM; for `CCc1ccc(N(CC(C)C)S(=O)(=O)c2ccc3c(c2)C(O)CCN3CC2CCC(C#N)CC2)cc1` (stereo not shown) [Compound 35, 1-(4-cyanocyclohexylmethyl)-4-hydroxy-1,2,3,4-tetrahydroquinoline-6-sulfonic acid (4-ethylphenyl)isobutylamide]: more than 1000 nM; for `CCc1ccc(N(CC(C)C)S(=O)(=O)c2ccc3c(c2)C(O)CCN3OC2CCOCC2)cc1` (stereo not shown) [Compound 36, 4-hydroxy-1-(tetrahydropyran-4-yloxy)-1,2,3,4-tetrahydroquinoline-6-sulfonic acid (4-ethylphenyl)isobutylamide]: 100 to 1000 nM.
With `CCc1ccc(N(CC(C)C)S(=O)(=O)c2ccc3c(c2)C(O)CCN3[C@H](C)C2CCOCC2)cc1` (stereo partly drawn) [Compound 38, 4-hydroxy-1-[(R)-1-(tetrahydropyran-4-yl)ethyl]-1,2,3,4-tetrahydroquinoline-6-sulfonic acid (4-ethylphenyl)isobutylamide] the figure was more than 1000 nM; with `CCc1ccc(N(CC(C)C)S(=O)(=O)c2ccc3c(c2)C(O)CCN3[C@H](C)C2CCOCC2)cc1` (stereo partly drawn) [Compound 39, 4-hydroxy-1-[(R)-1-(tetrahydropyran-4-yl)ethyl]-1,2,3,4-tetrahydroquinoline-6-sulfonic acid (4-ethylphenyl)isobutylamide], more than 1000 nM; with `CCc1ccc(N(CC(C)C)S(=O)(=O)c2ccc3c(c2)C(O)CCN3[C@@H](C)C2CCOCC2)cc1` (stereo partly drawn) [Compound 40, 4-hydroxy-1-[(S)-1-(tetrahydropyran-4-yl)ethyl]-1,2,3,4-tetrahydroquinoline-6-sulfonic acid (4-ethylphenyl)isobutylamide], 100 to 1000 nM.
With `CCc1ccc(N(CC(C)C)S(=O)(=O)c2ccc3c(c2)C(O)CCN3[C@@H](C)C2CCOCC2)cc1` (stereo partly drawn) [Compound 41, 4-hydroxy-1-[(S)-1-(tetrahydropyran-4-yl)ethyl]-1,2,3,4-tetrahydroquinoline-6-sulfonic acid (4-ethylphenyl)isobutylamide] the figure was 100 to 1000 nM; with `CCc1ccc(N(CC(C)C)S(=O)(=O)c2ccc3c(c2)C(O)CCN3CC2CC3(COC3)C2)cc1` (stereo not shown) [Compound 44, 4-hydroxy-1-(2-oxaspiro[3.3]hept-6-ylmethyl)-1,2,3,4-tetrahydroquinoline-6-sulfonic acid (4-ethylphenyl)isobutylamide], 100 to 1000 nM.
Consider `CCc1ccc(N(CC(C)C)S(=O)(=O)c2ccc3c(c2)C(O)CCN3Cc2ccc(C(=O)NO)cc2)cc1` (stereo not shown) [Compound 47, 4-{6-[(4-ethylphenyl)isobutylsulfamoyl]-4-hydroxy-3,4-dihydro-2H-quinolin-1-ylmethyl}-N-hydroxybenzamide], for which the IC50 is more than 1000 nM.
With `CCc1ccc(N(CC(C)C)S(=O)(=O)c2ccc3c(c2)C(O)CCN3[C@H]2CC[C@H](C(=O)OC)CC2)cc1` (stereo partly drawn) [Compound 48, methyl (1R,4R)-4-(6-(N-(4-ethylphenyl)-N-isobutylsulfamoyl)-4-hydroxy-3,4-dihydroquinolin-1(2H)-yl)cyclohexane-1-carboxylate] the figure was more than 1000 nM; with `CCc1ccc(N(CC(C)C)S(=O)(=O)c2ccc3c(c2)C(O)CCN3[C@H]2CC[C@@H](C(=O)OC)CC2)cc1` (stereo partly drawn) [Compound 49, methyl (1S,4S)-4-(6-(N-(4-ethylphenyl)-N-isobutylsulfamoyl)-4-hydroxy-3,4-dihydroquinolin-1(2H)-yl)cyclohexane-1-carboxylate], more than 1000 nM.
The same measure for `CCc1ccc(N(CC(C)C)S(=O)(=O)c2ccc3c(c2)C(O)CCN3CC2CCN(C(=O)OC)C2)cc1` (stereo not shown) [Compound 50, methyl ester of 3-{6-[(4-ethylphenyl)isobutylsulfamoyl]-4-hydroxy-3,4-dihydro-2H-quinolin-1-ylmethyl}pyrrolidine-1-carboxylic acid]: more than 1000 nM; for `CCc1ccc(N(CC(C)C)S(=O)(=O)c2ccc3c(c2)C(O)CCN3CC2CCN(C(=O)OC)CC2)cc1` (stereo not shown) [Compound 51, methyl ester of 4-{6-[(4-ethylphenyl)isobutylsulfamoyl]-4-hydroxy-3,4-dihydro-2H-quinolin-1-ylmethyl}piperidine-1-carboxylic acid]: more than 1000 nM.
In turn, `CCc1ccc(N(CC(C)C)S(=O)(=O)c2ccc3c(c2)C(=O)CCN3CC2CCNCC2)cc1` [Compound 54, 4-oxo-1-piperidin-4-ylmethyl-1,2,3,4-tetrahydroquinoline-6-sulfonic acid (4-ethylphenyl)isobutylamide] returned a half-inhibitory concentration (IC50) of more than 1000 nM.
In turn, `CCc1ccc(N(CC(C)C)S(=O)(=O)c2ccc3c(c2)C(=O)CCN3C2CCNCC2)cc1` [Compound 55, 4-oxo-1-piperidin-4-yl-1,2,3,4-tetrahydroquinoline-6-sulfonic acid (4-ethylphenyl)isobutylamide] registered an IC50 of more than 1000 nM.
With `CCc1ccc(N(CC(C)C)S(=O)(=O)c2ccc3c(c2)C(O)CCN3CC2CCNCC2)cc1` (stereo not shown) [Compound 56, 4-hydroxy-1-piperidin-4-ylmethyl-1,2,3,4-tetrahydroquinoline-6-sulfonic acid (4-ethylphenyl)isobutylamide] the figure was more than 1000 nM; with `CCc1ccc(N(CC(C)C)S(=O)(=O)c2ccc3c(c2)C(O)CCN3C2CCNCC2)cc1` (stereo not shown) [Compound 57, 4-hydroxy-1-piperidin-4-yl-1,2,3,4-tetrahydroquinoline-6-sulfonic acid (4-ethylphenyl)isobutylamide], more than 1000 nM.
With `CCc1ccc(N(CC(C)C)S(=O)(=O)c2ccc3c(c2)C(O)CCN3CC2CCN(C(C)=O)CC2)cc1` (stereo not shown) [Compound 58, 1-(1-acetylpiperidin-4-ylmethyl)-4-hydroxy-1,2,3,4-tetrahydroquinoline-6-sulfonic acid (4-ethylphenyl)isobutylamide] the figure was more than 1000 nM; with `CCc1ccc(N(CC(C)C)S(=O)(=O)c2ccc3c(c2)C(O)CCN3CC2CCN(S(C)(=O)=O)CC2)cc1` (stereo not shown) [Compound 59, 4-hydroxy-1-(1-methanesulfonylpiperidin-4-ylmethyl)-1,2,3,4-tetrahydroquinoline-6-sulfonic acid (4-ethylphenyl)isobutylamide], more than 1000 nM; with `CCc1ccc(N(CC(C)C)S(=O)(=O)c2ccc3c(c2)C(=O)CCN3C2CCN(C(C)=O)CC2)cc1` [Compound 60, 1-(1-acetylpiperidin-4-yl)-4-oxo-1,2,3,4-tetrahydroquinoline-6-sulfonic acid (4-ethylphenyl)isobutylamide], more than 1000 nM.
The same measure for `CCc1ccc(N(CC(C)C)S(=O)(=O)c2ccc3c(c2)C(O)CCN3C2CCN(C(C)=O)CC2)cc1` (stereo not shown) [Compound 61, 1-(1-acetylpiperidin-4-yl)-4-hydroxy-1,2,3,4-tetrahydroquinoline-6-sulfonic acid (4-ethylphenyl)isobutylamide]: more than 1000 nM.
